The source of these data is article PMC5450539, “Anti-Inflammatory Activity and Structure-Activity Relationships of Brominated Indoles from a Marine Mollusc” (Marine Drugs, 2017).

Molecules are shown by their SMILES. Values joined by “and” are separate entries in the source; they are usually repeats but may differ in a detail not shown here. Identical values can stand only once. Like-named read-outs stand apart in the source and are kept apart here.

Data set [1] is described as follows: in vitro. Particulars: mouse. How it is done: (§1) All extract/compounds were dissolved in DMSO and tested at 5 different concentrations of 50, 10, 2, 0.4, and 0.08 μg/mL for all anti-inflammatory assays unless otherwise noted. The final concentration of DMSO was 0.35% v/v for extracts and compounds. All samples were tested in triplicate at each concentration and each assay was independently repeated at least 3 times. The concentrations used for the cytotoxicity assays were 50, 25, 12.5, 6.25. and 3.125 μg/mL.
(§2) To check for cytotoxicity of the extracts and compounds against RAW264.7 mouse macrophage and 3T3 ccl-92 mouse fibroblast cell lines, the crystal violet cytotoxicity test was used according to the published protocol. In brief, RAW264.7 cells were seeded with a density of 2 × 10^4 cells/well in a 96-well plate and then incubated for 18–24 h. The following day the compounds/extracts were added and then incubated for 24 h before the media was aspirated and the cells washed twice in a gentle stream of water. After removing the water, 50 µL of 0.5% crystal violet staining solution were added and the cells were incubated for 20 min at room temperature. The plate was then washed 4 times with water and air dried for 2 h. Finally, 200 μL of methanol was added to each well and incubated for 20 min at room temperature on a rocker. This was followed by measuring the optical density at 570 nm with a plate reader Anthos Zenyth 200rt (Anthos Labtec Instruments, Heerhugowaard, The Netherlands). Chlorambucil was used as a positive control.

Data set [2] concerns nitric oxide (NO) production. Kind of data set: NO inhibition assay (Greiss) in LPS-stimulated RAW264.7 macrophages. The conditions noted are these: for reduction of NO production: 50 µg/mL (maximum test concentration), relative to DMSO control; for IC50: Mus musculus. Format: cell-based, mouse. The method, then: RAW264.7 macrophages were incubated 1 h with extracts/compounds prior to the addition of LPS. […] Then, 20 h after the addition of LPS, the supernatant was collected. […] The plates were incubated for 15–20 min in the dark, then read at 550 nm wavelength on an Anthos Zenyth 200rt (Anthos Labtec Instruments). Sodium nitrite was used to prepare a standard curve to quantify the nitrite from the absorbance readings in this assay. All data were processed in Microsoft Office Excel 2013 (MS) first to obtain descriptive statistics. One-way Analysis of Variance (ANOVA) followed by Dunnett’s multiple comparisons test was performed using GraphPad Prism version 6.00 for Windows (GraphPad Software, La Jolla, CA, USA, www.graphpad.com), with p < 0.05 considered significant.

Data set [3] in a line: Crystal violet cytotoxicity assay, 3T3 ccl-92. Format: cell-based, mouse. Particulars: mouse, 3T3 ccl-92 fibroblast cells; 3T3, 50 µg/mL, 24 h incubation, compared to DMSO-treated wells. How it is done:
as §1, §2

In data set [4] the test system is 3T3 ccl-92 mouse fibroblast. Kind of data set: Crystal violet cytotoxicity assay, 3T3 ccl-92. It is filed as cell-based. Particulars: 24 h incubation; max test concentration 50 µg/mL; > = <50% reduction in viability at max. The method, then:
as §1, §2

The test system of data set [5] is TNFα. Also noted: method as in Matheus et al. [37]. Particulars: minimum effective dose not established; ref Matheus et al. [37]; cited from earlier work.
Data set [6] has as its system NFκB translocation. Kind of data set: Assessment of NFκB translocation in LPS-stimulated RAW264.7. It is filed as cell-based. The conditions noted are these: Mus musculus, RAW264.7, 40 µg/mL, LPS-stimulated RAW264.7, relative to DMSO + LPS. The method, then:
This assay was performed according to the published protocol in Olivera et al.. RAW264.7 mouse macrophages were seeded at 400,000 cells/well in 800 μL in 4-well chambered slides and incubated overnight. The cells were then incubated with the test samples (40 μg/mL HBG extract, 6-bromoisatin, or 6-bromoindole) for 1 h prior to stimulation with LPS (700 ng/mL) for 30 min. After stimulation, the cells were washed with PBS and fixed with 3.7% paraformaldehyde for 15 min. […] The cells were washed with PBS and incubated with rabbit anti-p65 NFκB antibody (1:500) and goat anti-mouse IκB (1:500) overnight at 4 °C. The following day, the cells were washed again three times with PBS and incubated for 1 h with goat-anti-rabbit IgG conjugated with Alexa Fluor 594 (1:1000) and donkey anti-mouse IgG conjugated with Alexa fluor 488 (1:1000) at room temperature. Finally, the cells were washed with PBS then mounted with Prolong mounting media containing DAPI before visualising using the Olympus Flouview FVi10 confocal microscope (Olympus, Tokyo, Japan). Using ImageJ (v1.50i, National Institutes of Health, Bethesda, MD, USA), an outline was drawn around each nucleus by adjusting the colour threshold of DAPI. Mean fluorescence inside the nucleus was measured, along with several adjacent background readings. The total corrected cellular fluorescence (TCCF) was calculated by applying the equation TCCF = integrated density − (area of selected cell × mean fluorescence of background readings). This TCCF was then used to calculate the %inhibition of the NFκB translocation against the positive control where the cells were treated with LPS in the presence of the Vehicle (0.35% DMSO v/v) in Microsoft Office Excel 2013 (Redmond, WA, USA).

Data set [7] has as its system NO production. More on the design: method as in Matheus et al. [37]. Particulars: LPS and interferon-γ induced, RAW264.7; ref Matheus et al. [37]; cited from earlier work.
For data set [8], the system named is TNFα production. Kind of data set: TNF-alpha inhibition assay (ELISA) in LPS-stimulated RAW264.7 macrophages. The conditions noted are these: for IC50: Mus musculus. It is filed as cell-based, mouse. The method, then: The amount of TNFα was quantified in cell culture media using murine TNFα ELISA kits (BD bioscience). In brief, the RAW264.7 mouse macrophages (6 × 10^5 cells/mL) were stimulated with LPS (100 ng/mL) 1 h after treatment with several concentrations of extracts (0.08–50 μg/mL). After 18 h, the supernatant was collected and TNFα production was measured by reading the absorbance at 450 nm wavelength on an Anthos Zenyth 200rt microplate reader (Anthos Labtech Instruments). Dexamethasone at a concentration of 2.5 μM was used as a positive control, with a negative control of 0.35% DMSO.
All data were processed in Microsoft Office Excel 2013 (MS) first to obtain descriptive statistics. One-way Analysis of Variance (ANOVA) followed by Dunnett’s multiple comparisons test was performed using GraphPad Prism version 6.00 for Windows (GraphPad Software, La Jolla, CA, USA, www.graphpad.com), with p < 0.05 considered significant. The inhibitory concentration responsible for a 50% reduction in cell viability or production of inflammatory markers (IC50) was calculated using the regression analysis, Probit in SPSS v21.
Background: ELISA stands for enzyme-linked immunosorbent assay.

The mark [9] stands for this setting: RAW264.7, LPS-stimulated RAW264.7, max test concentration 50 µg/mL, read-out: NO IC50.

In general, viability refers to a per cent measure of how many cells are alive, often set against a control. Low readings indicate more harm to the cells, high ones less harm to the cells. The IC50 is the midpoint of a concentration-inhibition curve. As to `O=C1Nc2c(Br)cccc2C1=O` [7-bromoisatin], the viability at 24 h, 50 µg/mL in data set [1] was 81.9%; in data set [3], 80.9%. In data set [2], the “reduction of NO production” value is recorded as “less than 5%”. Also, the 50% inhibitory concentration (IC50) in data set [2] (setting [9]) was above 50 µg/mL. The “Cytotoxicity 3T3 ccl-92 (test concentration which causes toxicity)” value in data set [4] is listed as above 221.21 µM.

The term inhibition denotes the drop in the measured response relative to a control, in per cent. For `O=C1Nc2ccccc2C1=O` [isatin], in data set [2], the “reduction of NO production” value stood at 34%. The IC50 in data set [2] (setting [9]) was around 340 µM; in data set [2] (RAW264.7, predicted, above maximum test concentration 50 μg/mL, read-out: predicted NO IC50) it was 63.3 µg/mL and 430 µM; in data set [8] (RAW264.7, LPS-stimulated RAW264.7, max test concentration 50 µg/mL, read-out: TNFα IC50) it was above 340 µM; in data set [8] (RAW264.7, LPS-stimulated RAW264.7, read-out: TNFα IC50), above 50 µg/mL; in data set [8] (RAW264.7, predicted, above the maximum test concentration, read-out: predicted TNFα IC50), 717 µM. Besides, the “concentration at which TNFα was inhibited” value in data set [5] is 100 µM. In data set [6], the inhibition at 40 µg/mL is 45.7%. Further, the “concentrations significantly inhibiting NO production” value in data set [7] was 10 to 100 µM. Besides, in data set [8], the “lowest concentration with significant inhibition of TNFα” value came to 0.5 µM. Besides, in data set [4], the “Cytotoxicity 3T3 ccl-92 (test concentration which causes toxicity)” value is recorded as “NA (not active at maximum test concentration 50 µg/mL)”.
